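Tested at 5 concentrations; 48 h exposure; 96-well plates; endpoints linearly interpolated, else capped at highest concentration. Here, GI50 denotes the concentration required for 50% inhibition of growth. Definition used: TGI = concentration required for complete inhibition of growth.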
How the values were obtained:
Assay in all cases: NCI tumour cell line growth inhibition, 48 h
[1] = system: 786-0 renal
[2] = system: A498 renal
[3] = system: A549 NSCLC
[4] = system: ACHN renal
[5] = system: CAKI-1 renal
[6] = system: CCRF-CEM leukemia
[7] = system: COLO 205 colon
[8] = system: DLD-1 colon
[9] = system: DMS 114 small cell lung
[10] = system: DMS 273 small cell lung
[11] = system: EKVX NSCLC
[12] = system: HCC-2998 colon
[13] = system: HCT-116 colon
[14] = system: HCT-15 colon
[15] = system: HL-60(TB) leukemia
[16] = system: HOP-18 NSCLC
[17] = system: HOP-62 NSCLC
[18] = system: HOP-92 NSCLC
[19] = system: HT29 colon
[20] = system: IGROV1 ovarian
[21] = system: K-562 leukemia
[22] = system: KM12 colon
[23] = system: KM20L2 colon
[24] = system: LOX IMVI melanoma
[25] = system: LXFL 529 NSCLC
[26] = system: M14 melanoma
[27] = system: M19-MEL melanoma
[28] = system: MALME-3M melanoma
[29] = system: MOLT-4 leukemia
[30] = system: NCI-H226 lung
[31] = system: NCI-H23 lung
[32] = system: NCI-H460 lung
[33] = system: NCI-H522 lung
[34] = system: OVCAR-3 ovarian
[35] = system: OVCAR-4 ovarian
[36] = system: OVCAR-5 ovarian
[37] = system: OVCAR-8 ovarian
[38] = system: RPMI-8226 leukemia
[39] = system: RXF 393 renal
[40] = system: RXF-631 renal
[41] = system: SF-268 CNS
[42] = system: SF-295 CNS
[43] = system: SF-539 CNS
[44] = system: SK-MEL-2 melanoma
[45] = system: SK-MEL-28 melanoma
[46] = system: SK-MEL-5 melanoma
[47] = system: SK-OV-3 ovarian
[48] = system: SN12C renal
[49] = system: SNB-19 CNS
[50] = system: SNB-75 CNS
[51] = system: SNB-78 CNS
[52] = system: SR leukemia
[53] = system: SW-620 colon
[54] = system: TK-10 renal
[55] = system: U251 CNS
[56] = system: UACC-257 melanoma
[57] = system: UACC-62 melanoma
[58] = system: UO-31 renal
[59] = system: XF 498 CNS

Work on CCC[CH2][Ge]([CH2]CCC)([CH2]CCC)[O]C(=O)C(OC)c1ccccc1 (configuration not stated) yielded a GI50 [1] of 47.2 µM, a TGI [1] of over 100 µM and a GI50 [2] of 46.8 µM. For the same compound, the TGI [2] was over 100 µM, the GI50 [3] was over 36.9 µM and the TGI [3] was over 100 µM. For the same compound, the GI50 [4] was 25.2 µM, the TGI [4] was over 75.2 µM and the GI50 [5] was 70.1 µM. The TGI [5] was over 100 µM, the GI50 [6] was 2.09 µM and the TGI [6] was over 100 µM. It also gave a GI50 [7] of 45.8 µM, a TGI [7] of over 100 µM and a GI50 [8] of 23.7 µM. For the same compound, the TGI [8] was over 100 µM, the GI50 [9] was 7.56 µM and the TGI [9] was 34.4 µM. The GI50 [10] was 17.6 µM, the TGI [10] was over 75.9 µM and the GI50 [11] was 16.4 µM. For the same compound, the TGI [11] was over 100 µM, the GI50 [12] was 23.2 µM and the TGI [12] was 59 µM. The GI50 [13] was 16.5 µM, the TGI [13] was over 100 µM and the GI50 [14] was 9.52 µM. For the same compound, the TGI [14] was 32.4 µM, the GI50 [15] was 2.96 µM and the TGI [15] was over 26.1 µM. It also gave a GI50 [16] of over 100 µM, a TGI [16] of over 100 µM and a GI50 [17] of 20.6 µM. For the same compound, the TGI [17] was over 70.6 µM, the GI50 [18] was 9.53 µM and the TGI [18] was 98.3 µM. It also gave a GI50 [19] of 25.4 µM, a TGI [19] of over 100 µM and a GI50 [20] of over 74.7 µM. The TGI [20] was over 100 µM, the GI50 [21] was 2.07 µM and the TGI [21] was over 100 µM. For the same compound, the GI50 [22] was 26.4 µM, the TGI [22] was over 100 µM and the GI50 [23] was 17.2 µM. For the same compound, the TGI [23] was over 100 µM, the GI50 [24] was 14.3 µM and the TGI [24] was 35.1 µM. It also gave a GI50 [25] of 15.6 µM, a TGI [25] of over 100 µM and a GI50 [26] of 16.7 µM. For the same compound, the TGI [26] was 49.8 µM, the GI50 [27] was 33.9 µM and the TGI [27] was over 100 µM. It also gave a GI50 [28] of 26.7 µM, a TGI [28] of over 100 µM and a GI50 [29] of 3.74 µM. The TGI [29] was over 60.6 µM, the GI50 [30] was 92.7 µM and the TGI [30] was over 100 µM. For the same compound, the GI50 [31] was 6.86 µM, the TGI [31] was 51.8 µM and the GI50 [32] was 22.1 µM. The TGI [32] was over 100 µM, the GI50 [33] was 16.3 µM and the TGI [33] was over 74.9 µM. For the same compound, the GI50 [34] was 11.1 µM, the TGI [34] was over 70.2 µM and the GI50 [35] was 15.3 µM. The TGI [35] was over 100 µM, the GI50 [36] was 31.5 µM and the TGI [36] was over 78.3 µM. It also gave a GI50 [37] of 70.2 µM, a TGI [37] of over 100 µM and a GI50 [38] of 0.255 µM. For the same compound, the TGI [38] was 14.6 µM, the GI50 [39] was 6.9 µM and the TGI [39] was 27.8 µM. For the same compound, the GI50 [40] was 29.4 µM, the TGI [40] was over 100 µM and the GI50 [41] was 40.9 µM. The TGI [41] was over 100 µM, the GI50 [42] was 18.3 µM and the TGI [42] was over 100 µM. It also gave a GI50 [43] of 32.1 µM, a TGI [43] of over 100 µM and a GI50 [44] of 42.4 µM. For the same compound, the TGI [44] was over 100 µM, the GI50 [45] was 52.3 µM and the TGI [45] was over 100 µM. The GI50 [46] was 17.5 µM, the TGI [46] was over 63.1 µM and the GI50 [47] was over 94.2 µM. The TGI [47] was over 100 µM, the GI50 [48] was 46.4 µM and the TGI [48] was over 100 µM. For the same compound, the GI50 [49] was over 93.9 µM, the TGI [49] was over 100 µM and the GI50 [50] was 41.1 µM. It also gave a TGI [50] of over 100 µM, a GI50 [51] of over 100 µM and a TGI [51] of over 100 µM. For the same compound, the TGI [52] was over 55.4 µM, the GI50 [53] was 47.3 µM and the TGI [53] was over 100 µM. It also gave a GI50 [54] of over 91.9 µM, a TGI [54] of over 100 µM and a GI50 [55] of 31.4 µM. The TGI [55] was over 100 µM, the GI50 [56] was 16.7 µM and the TGI [56] was over 100 µM. The GI50 [57] was 30.7 µM, the TGI [57] was over 100 µM and the GI50 [58] was over 41.7 µM. The TGI [58] was over 100 µM, the GI50 [59] was 41.1 µM and the TGI [59] was over 100 µM.

— PubChem BioAssay (NCI)
